Data as given in ChEMBL document CHEMBL1134452, “Novel inhibitors of mitochondrial respiratory chain: endoperoxides from the marine tunicate Stolonica socialis” (J Med Chem, 2001).

Test: Compound was tested for inhibitory activity on mitochondrial electron transport using submitochondrial particles (SMP) from beef heart.
Type: functional, Bos taurus

| SMILES | IC50 [nM] |
| --- | --- |
| C=CCC/C=C/C=C/CCCCCC[C@H]1CC[C@H]([C@@H]2CC[C@@H](CC(=O)OC)OO2)O1 | < 1000 |
| C=CCC/C=C/C=C/CCCCCC[C@@H]1CC[C@@H]([C@@H]2CC[C@@H](CC(=O)OC)OO2)O1 | < 1000 |
